The values that follow come from ChEMBL document CHEMBL4342468, “Evolution of a 4-Benzyloxy-benzylamino Chemotype to Provide Efficacious, Potent, and Isoform Selective PPARα Agonists as Leads for Retinal Disorders” (J Med Chem, 2020).

The target in the first assay is T1, Peroxisome proliferator-activated receptor alpha (Homo sapiens) (UniProt Q07869).
T1 sequence (whole entry): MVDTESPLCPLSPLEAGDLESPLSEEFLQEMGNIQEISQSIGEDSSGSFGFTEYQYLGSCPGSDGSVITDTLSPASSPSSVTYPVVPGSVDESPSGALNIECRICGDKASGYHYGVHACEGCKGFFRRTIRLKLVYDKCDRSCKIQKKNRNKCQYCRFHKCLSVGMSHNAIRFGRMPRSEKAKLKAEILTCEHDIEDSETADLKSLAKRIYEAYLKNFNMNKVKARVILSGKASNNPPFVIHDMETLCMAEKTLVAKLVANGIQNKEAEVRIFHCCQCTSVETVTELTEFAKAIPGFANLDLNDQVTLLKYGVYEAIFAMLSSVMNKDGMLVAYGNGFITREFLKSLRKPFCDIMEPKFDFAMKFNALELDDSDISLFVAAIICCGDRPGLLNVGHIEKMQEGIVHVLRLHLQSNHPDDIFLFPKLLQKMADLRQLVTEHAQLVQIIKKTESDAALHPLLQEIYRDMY
Description: Agonist activity at human PPARalpha expressed in nonhuman mammalian cells assessed as maximal increase in receptor transcriptional activity incubated for 22 to 24 hrs by luciferase reporter gene assay relative to GW590735. The format is cell-based. In general terms: Reporter assays use an easily measured gene product as a stand-in for the process of interest.
Turning to `C[C@@H](Oc1ccc(CNc2cccc(C(=O)O)c2)cc1)c1ccc(F)cc1`, the fold change (FC) was determined as 0.6. On to `O=C(O)c1cccc(NCc2ccc(OCc3ccc(I)cc3)cc2)c1`, for which the fold change (FC) was 1.1. On the same count and under the same terms, the result for `O=C(O)c1cccc(NCc2ccc(OCCc3ccccc3)cc2)c1` reads 0.9; that for `NS(=O)(=O)c1cccc(NCc2ccc(OCc3ccc(F)cc3)cc2)c1`, 0.1. The same measure, in the same setting: the result for `CN(Cc1ccc(OCc2ccc(F)cc2)cc1)c1cccc(C(=O)O)c1` reads 1.7. Take `O=C(O)c1cccc(NCc2ccc(OCc3ccccc3F)cc2)c1`: the fold change (FC) is 1. `COc1ccc(COc2ccc(CNc3cccc(OC(C)(C)C(=O)O)c3)cc2)cc1`: the fold change (FC) was found to be 1.8. `O=C(O)c1cccc(NCc2ccc(OCc3ccc(F)cc3)cc2OCc2ccc(F)cc2)c1`: the fold change (FC) is 1.2.

Regarding `CC(C)(Oc1cccc(NCc2ccc(OCc3ccc(F)cc3)cc2)c1)C(=O)O`, the fold change (FC) turned out to be 2. For the compound `Cc1cc(CNc2cccc(C(=O)O)c2)ccc1OCc1ccc(Br)cc1`, the fold change (FC) worked out at 1.3.

For the compound `OB(O)c1cccc(NCc2ccc(OCc3ccc(F)cc3)cc2)c1`, the fold change (FC) was determined as 0.1.

As for `Cc1cc(CN(C)c2cccc(C(=O)O)c2)ccc1OCc1ccc(F)cc1`, the fold change (FC) turned out to be 2.1. With `CC(C)(Oc1ccc(CNc2cccc(C(=O)O)c2)cc1)c1ccc(F)cc1`, the fold change (FC) came to 0.8. Still for that read-out and setting: the result for `Cc1cc(CNc2cc(F)cc(C(=O)O)c2)ccc1OCc1ccc(F)cc1` reads 1.5; that for `Cc1cc(CNc2cccc(C(=O)O)c2)ccc1OCc1ccc(F)c(F)c1`, 1.6; that for `O=C(O)c1cccc(NCc2ccc(OCc3cc(F)cc(F)c3)cc2)c1`, 1.1. On to `Fc1ccc(COc2ccc(CNc3cccc(-c4nnn[nH]4)c3)cc2)cc1`, for which the fold change (FC) came out at 1.6. With `CC(C)(Oc1ccc(NCc2ccc(OCc3ccc(F)cc3)cc2)cc1)C(=O)O`, the fold change (FC) was 1.8. `Cc1cc(CNc2cccc(OC(C)(C)C(=O)O)c2)ccc1OCc1ccc(F)cc1`: the fold change (FC) is 1.6. Same read-out and setting: as for `O=C(NO)c1cccc(NCc2ccc(OCc3ccc(F)cc3)cc2)c1`, the figure is 0.6. Turning to `CC(C)(Sc1cccc(NCc2ccc(OCc3ccc(F)cc3)cc2)c1)C(=O)O`, the fold change (FC) was 1.1. In the case of `Cc1ccc(C(=O)O)cc1NCc1ccc(OCc2ccc(F)cc2)cc1`, the fold change (FC) turned out to be 0.3. For the compound `Cc1cc(CNc2cccc(C(=O)O)c2)ccc1OCc1ccc(F)cc1F`, the fold change (FC) stood at 1.4. For the compound `O=C(O)c1cccc(NCc2ccc(OCc3ccc(F)cc3)c(F)c2)c1`, the fold change (FC) was 1.7. Take `CS(=O)(=O)Nc1cccc(NCc2ccc(OCc3ccc(F)cc3)cc2)c1`: the fold change (FC) came out at 0.1.

For the compound `O=C(O)c1cccc(NCc2ccc(OCc3ccc(F)cc3)c(Cl)c2)c1`, the fold change (FC) stood at 1.5.

With `Cc1cc(CNc2cccc(C(=O)O)c2)ccc1OCc1ccc(I)cc1`, the fold change (FC) turned out to be 1.5. Same read-out and setting: as for `Cc1cc(CNc2cccc(C(=O)O)c2)ccc1OCc1cc(F)cc(F)c1`, the figure is 1.6; as for `COc1ccc(CCOc2ccc(CNc3cccc(C(=O)O)c3)cc2)cc1`, 0.9. For the compound `Cc1cc(CNc2cccc(C(=O)O)c2)ccc1OCc1ccc(Cl)cc1`, the fold change (FC) was 1.2. Consider `C[C@H](Oc1ccc(CNc2cccc(C(=O)O)c2)cc1)c1ccc(F)cc1`, for which the fold change (FC) came to 1.6. Take `N#Cc1ccc(COc2ccc(CNc3cccc(C(=O)O)c3)cc2)cc1`: the fold change (FC) worked out at 1.

Consider `CC(C)(Oc1cccc(NCc2ccc(OCc3ccc(C(F)(F)F)cc3)cc2)c1)C(=O)O`, for which the fold change (FC) came to 1.2. As to `O=C(O)c1cc(Cl)cc(NCc2ccc(OCc3ccc(F)cc3)cc2)c1`, the fold change (FC) came out at 1.1. Still for that read-out and setting: as for `O=C(O)c1ccc(NCc2ccc(OCc3ccc(F)cc3)cc2)cc1`, the figure is 0.4.

The target in the next assay is T2, Peroxisome proliferator-activated receptor alpha (Homo sapiens, UniProt Q07869).
T2 sequence (Q07869 whole entry): T1 sequence (whole entry)
In the case of `C[C@@H](Oc1ccc(CNc2cccc(C(=O)O)c2)cc1)c1ccc(F)cc1`, a half-maximal response (EC50) required 25600 nM.

As for `O=C(O)c1cccc(NCc2ccc(OCc3ccc(I)cc3)cc2)c1`, the EC50 – broadly, the concentration that produces a half-maximal response – is 1450 nM. In turn, `CN(Cc1ccc(OCc2ccc(F)cc2)cc1)c1cccc(C(=O)O)c1` displayed an EC50 of 900 nM. `O=C(O)c1cccc(NCc2ccc(OCc3ccc(F)cc3)cc2OCc2ccc(F)cc2)c1` returned an EC50 of 930 nM. Compound `Cc1cc(CN(C)c2cccc(C(=O)O)c2)ccc1OCc1ccc(F)cc1` showed an EC50 of 67 nM.

As to `CC(C)(Oc1ccc(CNc2cccc(C(=O)O)c2)cc1)c1ccc(F)cc1`, the EC50 worked out at 8520 nM.
